Results taken from ChEMBL document CHEMBL3407448 (J Med Chem, 2015).

How the values were obtained:
[1] = Volume of distribution at steady state in male Wistar rat at 2 mg/kg, iv; type: ADME, organism-based; design: dose 2 mg/kg, route intravenous; conditions: in vivo, read-out: Vdss
[2] = Cmax in male Wistar rat at 7 mg/kg, po; type: ADME, organism-based; design: dose 7 mg/kg, route oral; conditions: in vivo
[3] = Tmax in male Wistar rat at 7 mg/kg, po; type: ADME, organism-based; design: dose 7 mg/kg, route oral; conditions: in vivo
[4] = AUC (infinity) in male Wistar rat at 7 mg/kg, po; type: ADME, organism-based; design: time infinity, dose 7 mg/kg, route oral; conditions: plasma
[5] = Oral bioavailability in male Wistar rat at 7 mg/kg; type: ADME, organism-based; conditions: in vivo
[6] = Ratio of drug level in brain to plasma in male Wistar rat; type: ADME; conditions: read-out: BPR
[7] = Ratio of drug level in CSF to plasma in male Wistar rat; type: ADME
[8] = test system: Rattus norvegicus; assay: (§1) Volume of distribution at steady state in male Wistar rat at 1 mg/kg, iv; type: ADME, organism-based; design: dose 1 mg/kg, route intravenous; conditions: in vivo
[9] = as §1; type: ADME, organism-based; design: dose 1 mg/kg, route intravenous; conditions: male, Wistar, in vivo, read-out: Vdss
[10] = Cmax in male Wistar rat at 10 mg/kg, po; type: ADME, organism-based; design: dose 10 mg/kg, route oral; conditions: in vivo
[11] = Tmax in male Wistar rat at 10 mg/kg, po; type: ADME, organism-based; design: dose 10 mg/kg, route oral; conditions: in vivo
[12] = AUC (infinity) in male Wistar rat at 10 mg/kg, po; type: ADME, organism-based; design: time infinity, dose 10 mg/kg, route oral; conditions: plasma
[13] = Oral bioavailability in male Wistar rat at 10 mg/kg; type: ADME, organism-based; conditions: in vivo
[14] = Volume of distribution at steady state cynomolgus monkey at 1 mg/kg, iv; type: ADME, organism-based, Macaca fascicularis; design: dose 1 mg/kg, route intravenous; conditions: in vivo, read-out: Vdss
[15] = Cmax in fasted cynomolgus monkey at 0.3 mg/kg, po; type: ADME, organism-based, Macaca fascicularis; design: dose 0.3 mg/kg, route oral; conditions: in vivo
[16] = Tmax in fasted cynomolgus monkey at 03 mg/kg, po; type: ADME, organism-based, Macaca fascicularis; design: dose 3 mg/kg, route oral; conditions: in vivo, 3 mg/kg
[17] = AUC (infinity) in fasted cynomolgus monkey at 0.3 mg/kg, po; type: ADME, organism-based, Macaca fascicularis; design: time infinity, dose 0.3 mg/kg, route oral; conditions: plasma
[18] = Oral bioavailability in fasted cynomolgus monkey at 0.3 mg/kg; type: ADME, organism-based, Macaca fascicularis; conditions: in vivo
[19] = Cmax in fed cynomolgus monkey at 0.3 mg/kg, po; type: ADME, organism-based, Macaca fascicularis; design: dose 0.3 mg/kg, route oral; conditions: in vivo
[20] = Tmax in fed cynomolgus monkey at 03 mg/kg, po; type: ADME, organism-based, Macaca fascicularis; design: dose 3 mg/kg, route oral; conditions: in vivo, 3 mg/kg
[21] = AUC (infinity) in fed cynomolgus monkey at 0.3 mg/kg, po; type: ADME, organism-based, Macaca fascicularis; design: time infinity, dose 0.3 mg/kg, route oral; conditions: plasma
[22] = Oral bioavailability in fed cynomolgus monkey at 0.3 mg/kg; type: ADME, organism-based, Macaca fascicularis; conditions: in vivo
[23] = test system: Plasma; assay: Plasma concentration in male Sprague-Dawley rat at 0.03 mg/ml, po; type: ADME
[24] = test system: Plasma; assay: Plasma concentration in male Sprague-Dawley rat at 0.3 mg/ml, po; type: ADME

Question: For Cc1cc(C#Cc2cn(-c3ccc(F)cc3)c(C)n2)ccn1, which Vd [1] is on record?
Answer: 0.8 L/kg

Question: What about the Cmax [2] of the same molecule?
Answer: 1660 ng/mL

Question: What about the Tmax [3] of the same molecule?
Answer: 1.1 h

Question: And the AUC(0-inf) [4]?
Answer: 10500 ng·h/mL

Question: What about the bioavailability [5] of the same molecule?
Answer: 84%

Question: What about the Kp [6] of the same molecule?
Answer: 0.4

Question: And the Kp [7]?
Answer: 0.02

Question: Which Vdss [8] does the source give for C(#Cc1ncn2c1COc1ccccc1-2)c1ccccc1 here?
Answer: 2.9 L/kg

Question: And the Cmax [2]?
Answer: 158 ng/mL

Question: What about the Tmax [3] of the same molecule?
Answer: 2.3 h

Question: What about the AUC(0-inf) [4] of the same molecule?
Answer: 661 ng·h/mL

Question: And the bioavailability [5]?
Answer: 18%

Question: With Cc1nc(C#Cc2ccnc(Cl)c2)c(C)n1-c1ccc(F)cc1 [BASIMGLURANT] as the molecule, how does the Vd [9] read?
Answer: 4 L/kg

Question: And the Cmax [10]?
Answer: 1580 ng/mL

Question: And the Tmax [11]?
Answer: 6.2 h

Question: What about the AUC(0-inf) [12] of the same molecule?
Answer: 25600 ng·h/mL

Question: What about the bioavailability [13] of the same molecule?
Answer: 91%

Question: And the Kp [6]?
Answer: 2.9

Question: And the Kp [7]?
Answer: 0.06

Question: What about the Vd [14] of the same molecule?
Answer: 5.1 L/kg

Question: What about the Cmax [15] of the same molecule?
Answer: 76.5 ng/mL

Question: What about the Tmax [16] of the same molecule?
Answer: 1 h

Question: What about the AUC(0-inf) [17] of the same molecule?
Answer: 852 ng·h/mL

Question: What about the bioavailability [18] of the same molecule?
Answer: 100%

Question: What about the Cmax [19] of the same molecule?
Answer: 36.1 ng/mL

Question: What about the Tmax [20] of the same molecule?
Answer: 2 h

Question: And the AUC(0-inf) [21]?
Answer: 298 ng·h/mL

Question: And the bioavailability [22]?
Answer: 54%

Question: And the Cp [23]?
Answer: 5 ng/mL

Question: What about the Cp [24] of the same molecule?
Answer: 37 ng/mL

Question: For Cc1nc(C#Cc2ccnc(Cl)c2)c(C)n1-c1ccc(OC(F)(F)F)cc1, which Vd [1] is on record?
Answer: 11 L/kg

Question: And the Cmax [10]?
Answer: 619 ng/mL

Question: What about the Tmax [11] of the same molecule?
Answer: 5.5 h

Question: What about the AUC(0-inf) [12] of the same molecule?
Answer: 78900 ng·h/mL

Question: And the bioavailability [13]?
Answer: 98%

Question: What about the Kp [6] of the same molecule?
Answer: 2.6
